Data set [1] concerns the target T1, Serine/threonine-protein kinase ULK1 (Homo sapiens, UniProt O75385).
T1 sequence (O75385 whole entry): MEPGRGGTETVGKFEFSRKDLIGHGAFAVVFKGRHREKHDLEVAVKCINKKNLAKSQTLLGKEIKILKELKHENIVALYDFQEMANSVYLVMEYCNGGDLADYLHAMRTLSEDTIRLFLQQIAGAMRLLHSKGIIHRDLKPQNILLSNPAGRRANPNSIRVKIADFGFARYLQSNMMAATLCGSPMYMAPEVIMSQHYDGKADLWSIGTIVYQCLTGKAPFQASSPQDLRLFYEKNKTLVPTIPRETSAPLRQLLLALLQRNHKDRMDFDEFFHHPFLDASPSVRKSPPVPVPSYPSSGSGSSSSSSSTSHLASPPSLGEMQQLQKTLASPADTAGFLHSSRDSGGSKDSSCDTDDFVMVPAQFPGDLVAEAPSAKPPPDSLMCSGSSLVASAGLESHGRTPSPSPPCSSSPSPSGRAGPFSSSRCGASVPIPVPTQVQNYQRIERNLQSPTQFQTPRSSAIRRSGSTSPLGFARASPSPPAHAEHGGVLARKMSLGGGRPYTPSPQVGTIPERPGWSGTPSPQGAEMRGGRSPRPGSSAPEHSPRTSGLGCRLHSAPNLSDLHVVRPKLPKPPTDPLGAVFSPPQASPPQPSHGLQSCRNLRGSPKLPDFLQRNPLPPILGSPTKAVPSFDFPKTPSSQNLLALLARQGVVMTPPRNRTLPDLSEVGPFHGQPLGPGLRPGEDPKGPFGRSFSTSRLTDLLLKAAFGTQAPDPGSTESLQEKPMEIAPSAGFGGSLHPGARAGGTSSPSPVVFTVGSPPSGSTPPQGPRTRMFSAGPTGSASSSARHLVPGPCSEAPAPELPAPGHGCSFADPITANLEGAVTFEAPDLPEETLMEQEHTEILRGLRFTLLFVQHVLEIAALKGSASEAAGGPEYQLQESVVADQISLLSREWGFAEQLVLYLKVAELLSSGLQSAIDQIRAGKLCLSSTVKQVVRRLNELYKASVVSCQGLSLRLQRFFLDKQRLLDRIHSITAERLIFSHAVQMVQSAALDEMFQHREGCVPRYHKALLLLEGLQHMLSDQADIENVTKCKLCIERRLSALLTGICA
Kind of data set: Inhibition of ULK1 (unknown origin) expressed in HEK293T cells incubated for 2 hrs by NanoBRET assay. The data set is classed as cell-based.

The target of data set [2] is T1, Serine/threonine-protein kinase ULK1. Kind of data set: Inhibition of recombinant human ULK1 (1-649) expressed in Sf9 cells using myelin basic protein as substrate by ADP-glo assay.
Data set [3] is described as follows: Efflux ratio of apparent permeability from basolateral side to apical side over apical side to basolateral side in human Caco2 cells. It is filed as ADME, cell-based. Conditions: Caco-2.
The nature of data set [4]: Apparent permeability of the compound across apical side to basolateral side in human Caco2 cells. As to conditions: Caco-2. It is filed as ADME, cell-based.
Data set [5] deals with T2, Serine/threonine-protein kinase ULK2 (Homo sapiens, UniProt Q8IYT8).
T2 sequence (Q8IYT8 whole entry): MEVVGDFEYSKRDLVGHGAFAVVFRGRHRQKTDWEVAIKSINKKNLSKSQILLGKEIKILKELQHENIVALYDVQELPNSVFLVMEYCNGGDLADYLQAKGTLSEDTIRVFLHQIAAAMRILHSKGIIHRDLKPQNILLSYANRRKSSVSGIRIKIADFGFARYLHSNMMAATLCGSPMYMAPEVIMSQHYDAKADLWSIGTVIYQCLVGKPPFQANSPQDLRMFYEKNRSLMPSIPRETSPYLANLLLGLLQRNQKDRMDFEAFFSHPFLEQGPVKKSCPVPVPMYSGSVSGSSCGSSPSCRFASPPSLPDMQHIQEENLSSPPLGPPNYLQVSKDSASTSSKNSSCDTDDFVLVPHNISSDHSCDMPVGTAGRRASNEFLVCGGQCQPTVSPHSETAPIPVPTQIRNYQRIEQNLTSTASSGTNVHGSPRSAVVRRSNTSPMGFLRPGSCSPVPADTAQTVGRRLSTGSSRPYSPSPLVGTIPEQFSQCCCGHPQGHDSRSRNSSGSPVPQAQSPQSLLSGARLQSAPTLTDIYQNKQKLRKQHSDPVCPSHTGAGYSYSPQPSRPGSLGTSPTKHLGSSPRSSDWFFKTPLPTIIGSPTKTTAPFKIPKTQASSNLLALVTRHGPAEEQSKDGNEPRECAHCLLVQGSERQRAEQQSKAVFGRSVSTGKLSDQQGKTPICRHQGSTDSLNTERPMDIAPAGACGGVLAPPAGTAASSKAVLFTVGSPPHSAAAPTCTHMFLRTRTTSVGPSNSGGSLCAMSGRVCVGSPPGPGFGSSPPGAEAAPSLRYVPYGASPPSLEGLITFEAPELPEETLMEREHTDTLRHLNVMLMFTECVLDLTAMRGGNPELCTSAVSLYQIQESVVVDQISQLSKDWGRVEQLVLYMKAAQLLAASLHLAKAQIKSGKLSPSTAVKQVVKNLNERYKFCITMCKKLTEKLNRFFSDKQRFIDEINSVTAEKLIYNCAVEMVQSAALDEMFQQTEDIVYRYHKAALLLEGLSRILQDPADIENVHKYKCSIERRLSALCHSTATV
Kind of data set: Inhibition of ULK2 (unknown origin) expressed in HEK293T cells incubated for 2 hrs by NanoBRET assay. It is filed as cell-based.

Data set [6] is described as follows: Apparent permeability of the compound across basolateral side to apical side in human Caco2 cells. It is filed as ADME, cell-based. Conditions: Caco-2.
In data set [7] the target is T2, Serine/threonine-protein kinase ULK2. Kind of data set: Inhibition of recombinant human ULK2 (1 to 478 residues) expressed in Sf9 cells using myelin basic protein as substrate by ADP-glo assay.
In data set [8] the target is T3, Serine/threonine-protein kinase ULK1 (Homo sapiens) (UniProt O75385).
T3 sequence (whole entry): T1 sequence (O75385 whole entry)
Kind of data set: Inhibition of Myc-tagged ULK1 (unknown origin) expressed in HEK293T cells cotransfected with wild-type Flag tagged Vps34 assessed as decrease in pVPS34 Ser249 at 10 uM measured after 1 hr by Western blot analysis relative to control. It is filed as cell-based.

In data set [9] the target is T3, Serine/threonine-protein kinase ULK1 (Homo sapiens). Kind of data set: Inhibition of Myc-tagged ULK1 (unknown origin) expressed in HEK293T cells cotransfected with wild-type Flag tagged Beclin-1 assessed as decrease in pBeclin1 Ser15 at 10 uM measured after 1 hr by Western blot analysis. The data set is classed as cell-based.
Data set [10] relates to MDA-MB-468. Kind of data set: cells. As to conditions: Homo sapiens, MDA-MB-468, 72 h.
Description: Cytotoxicity against human MDA-MB-468 cells measured after 72 hrs by Celltiter-Glo assay
Data set [11] is described as follows: Inhibition of starvation-induced autophagic flux in human MDA-MB-468 cells expressing tandem-labelled mCherryEGFP-LC3 chimeric protein at 10 uM measured after 18 hrs in EBSS media by flow cytometry (Rvb >90%). It is filed as functional.
Data set [12] has as its system MDA-MB-468. The data set can be described thus: Reduction in autophagosome accumulation in human MDA-MB-468 cells at 10 uM by transmission electron microscopic analysis. The data set is classed as functional, cell-based.

Molecules are shown by their SMILES. Calls of active or inactive are those of the source. No cut-off for these calls is given here.

As to `Nc1nc(Nc2ccc3c(c2)OCO3)ncc1C(F)(F)F`, the IC50 in [1] was > 10000 nM; in data set [2], 230 nM.

As for `FC(F)(F)c1cnc(Nc2cnc3[nH]ccc3c2)nc1NC1CC1`, the 50% inhibitory concentration (IC50) amounted to 1930 nM in data set [1] and 29 nM in data set [2].

Regarding `FC(F)(F)c1cnc(Nc2ccc3ncoc3c2)nc1NC1CC1`, the half-maximal inhibitory concentration (IC50) in data set [1] came to 1020 nM; in [5] it was 4260 nM; in [7] it was 1190 nM; in data set [2], 19 nM. In [3], the efflux ratio is < 2. In data set [4], the Papp A→B is > 10 ×10⁻⁶ cm/s. The apparent permeability from basolateral to apical (Papp B→A) in [6] is > 10 ×10⁻⁶ cm/s. Besides, in data set [8], the inhibition is 70%. Also, the inhibition entry in data set [9] was “Active”.

Regarding `CCN1CCOc2cc(Nc3ncc(C(F)(F)F)c(NC4CC4)n3)cnc21`, the figures for the IC50 in data set [1] and in data set [2] were 1210 nM and 31 nM, respectively.

`FC(F)(F)c1cnc(Nc2ccc3c(c2)OCCO3)nc1NC1CC1`: the IC50 in [1] was 4480 nM; in [2] it was 14 nM.

With `FC(F)(F)c1cnc(Nc2ccc3nn[nH]c3c2)nc1NC1CC1`, the concentration for half-maximal inhibition (IC50) in [1] was 1170 nM; in data set [2], 6 nM.

With `FC1(F)Oc2ccc(Nc3ncc(C(F)(F)F)c(NC4CC4)n3)cc2O1`, the values for the IC50 in data set [1] and in data set [2] were > 10000 nM and 42 nM, respectively.

As for `COc1cncc(Nc2ncc(C(F)(F)F)c(NC3CC3)n2)c1`, the Papp A→B in data set [4] was > 10 ×10⁻⁶ cm/s. Moreover, the 50% inhibitory concentration (IC50) amounted to 1890 nM in [5] and 695 nM in [7]. The Papp B→A in data set [6] is > 10 ×10⁻⁶ cm/s. In addition, the inhibition in [8] is 70%. Further, the inhibition entry in [9] was “Active”.

Consider `O=C(Nc1ccc(Nc2ncc(C(F)(F)F)c(NC3CC3)n2)cc1)C1CC1`, for which the figures for the IC50 in data set [1] and in data set [2] were 1330 nM and 13 nM, respectively.

In data set [10], `NC(=O)c1cccc2cn(-c3ccc([C@@H]4CCCNC4)cc3)nc12` [NIRAPARIB] displayed an IC50 of 7600 nM.

Take `Oc1ccccc1Nc1ncc(C(F)(F)F)c(NC2CC2)n1`: in data set [4], the Papp A→B is > 10 ×10⁻⁶ cm/s. Also, the apparent permeability from basolateral to apical (Papp B→A) in data set [6] is > 10 ×10⁻⁶ cm/s.

As for `FC(F)(F)c1cnc(Nc2ccc3c(c2)OCCCO3)nc1NC1CC1`, the figures for the IC50 in data set [1] and in data set [2] were 1600 nM and 7 nM, respectively. For the same molecule, the efflux ratio in data set [3] was < 2. Also, the apparent permeability from apical to basolateral (Papp A→B) in data set [4] is > 10 ×10⁻⁶ cm/s. Besides, the Papp B→A in data set [6] is > 10 ×10⁻⁶ cm/s.

For `FC(F)(F)c1cnc(Nc2cnc3[nH]ccc3c2)nc1NC1CCC1`, the IC50 in [1] was > 10000 nM; in [2], 17 nM.

On to `O=C1CCCc2cc(Nc3ncc(C(F)(F)F)c(NC4CC4)n3)ccc21`, for which the IC50 in data set [1] came out at 1360 nM; in [2], 3 nM.

Take `FC(F)(F)c1cnc(Nc2ccc3nc[nH]c3c2)nc1NC1CC1`: the apparent permeability from apical to basolateral (Papp A→B) in data set [4] is > 10 ×10⁻⁶ cm/s. The IC50 in [5] stood at 703 nM; in data set [7], 720 nM. Also, in [6], the apparent permeability from basolateral to apical (Papp B→A) was > 10 ×10⁻⁶ cm/s. Also, in data set [8], the inhibition was found to be 70%. The inhibition result in [9] is “Active”.

For the molecule `FC(F)(F)c1cnc(Nc2ccc3ncccc3c2)nc1NC1CC1`, the half-maximal inhibitory concentration (IC50) amounted to 739 nM in [1], 1650 nM in data set [5], 714 nM in data set [7] and 5 nM in data set [2]. Also, in [3], the efflux ratio is < 2. In addition, in [4], the apparent permeability from apical to basolateral (Papp A→B) is > 10 ×10⁻⁶ cm/s. Further, the Papp B→A in [6] is > 10 ×10⁻⁶ cm/s. For the same molecule, the inhibition in [8] stood at 70%. For the same molecule, in data set [9], the inhibition entry was “Active”.

Consider `CNC(=O)c1ccccc1Oc1nc(Nc2cc(OC)c(OC)c(OC)c2)ncc1Br`, for which the inhibition at 10 µM in [11] amounted to 10%. The IC50 in data set [5] was 4580 nM; in [7], 2450 nM. Besides, in [12], the inhibition entry is “Active”.

Turning to `FC(F)(F)c1cnc(Nc2cnc3ccccc3c2)nc1NC1CC1`, the 50% inhibitory concentration (IC50) in data set [1] is > 10000 nM; in data set [2], 16 nM.

For `CNc1nc(Nc2cnc3[nH]ccc3c2)ncc1C(F)(F)F`, the IC50 in data set [1] came to 3630 nM; in data set [2], 34 nM.

Consider `FC(F)(F)c1cnc(Nc2ccc3c(c2)OCO3)nc1NC1CC1`, for which the 50% inhibitory concentration (IC50) in data set [1] was > 10000 nM; in data set [2], 21 nM.

Consider `FC(F)(F)c1cnc(Nc2ccnnc2)nc1NC1CC1`, for which the values for the IC50 in data set [1] and in data set [2] were 1610 nM and 40 nM, respectively.

On to `Nc1ccc(Nc2ncc(C(F)(F)F)c(NC3CC3)n2)cc1`, for which the half-inhibitory concentration (IC50) came to 679 nM in data set [1], 1690 nM in data set [5], 1330 nM in data set [7] and 20 nM in [2]. The efflux ratio in data set [3] is < 2. For the same molecule, the Papp A→B in [4] is > 10 ×10⁻⁶ cm/s. Further, the basolateral-to-apical permeability (Papp B→A) in [6] is > 10 ×10⁻⁶ cm/s. Besides, in [8], the inhibition was 70%. Further, the inhibition result in data set [9] is “Active”.

For `O=C(C1CC1)N(C(=O)C1CC1)c1ccc(Nc2ncc(C(F)(F)F)c(NC3CC3)n2)cc1`, the IC50 in [1] worked out at 1710 nM; in data set [2] it was 30 nM.

With `FC(F)(F)c1cnc(Nc2ccc3[nH]ccc3c2)nc1NC1CC1`, the IC50 was found to be 9840 nM in [1] and 23 nM in [2].
